Calls of active or inactive are those of the source. No cut-off for these calls is given here.
Legend:
[1] = molecular target: T1, Glycogen synthase kinase-3 beta (Homo sapiens, UniProt P49841); assay: Inhibition of human recombinant GSK-3beta using prephosphorylated polypeptide as substrate incubated for 30 mins in presence of ATP by Kinase-Glo luminescence assay relative to control
Target sequence in this assay (P49841 whole entry, looked up): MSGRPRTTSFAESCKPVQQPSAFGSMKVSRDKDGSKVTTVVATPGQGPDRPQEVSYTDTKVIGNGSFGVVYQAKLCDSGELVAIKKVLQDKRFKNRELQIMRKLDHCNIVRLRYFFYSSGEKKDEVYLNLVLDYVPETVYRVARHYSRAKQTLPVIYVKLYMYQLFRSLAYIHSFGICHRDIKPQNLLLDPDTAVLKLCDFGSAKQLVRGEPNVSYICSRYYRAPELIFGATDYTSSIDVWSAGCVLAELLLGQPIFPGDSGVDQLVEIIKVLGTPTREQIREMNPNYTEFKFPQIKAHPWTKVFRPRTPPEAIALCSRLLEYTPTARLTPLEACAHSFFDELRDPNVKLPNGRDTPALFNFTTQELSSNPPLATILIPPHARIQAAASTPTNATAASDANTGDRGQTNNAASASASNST

Acetylcholinesterase = molecular target: T2, Acetylcholinesterase (Mus musculus, UniProt P21836); assay: Inhibition of mouse AChE using acetylthiocholine iodide as substrate incubated for 20 mins by Ellman's method
T2 sequence (P21836 whole entry): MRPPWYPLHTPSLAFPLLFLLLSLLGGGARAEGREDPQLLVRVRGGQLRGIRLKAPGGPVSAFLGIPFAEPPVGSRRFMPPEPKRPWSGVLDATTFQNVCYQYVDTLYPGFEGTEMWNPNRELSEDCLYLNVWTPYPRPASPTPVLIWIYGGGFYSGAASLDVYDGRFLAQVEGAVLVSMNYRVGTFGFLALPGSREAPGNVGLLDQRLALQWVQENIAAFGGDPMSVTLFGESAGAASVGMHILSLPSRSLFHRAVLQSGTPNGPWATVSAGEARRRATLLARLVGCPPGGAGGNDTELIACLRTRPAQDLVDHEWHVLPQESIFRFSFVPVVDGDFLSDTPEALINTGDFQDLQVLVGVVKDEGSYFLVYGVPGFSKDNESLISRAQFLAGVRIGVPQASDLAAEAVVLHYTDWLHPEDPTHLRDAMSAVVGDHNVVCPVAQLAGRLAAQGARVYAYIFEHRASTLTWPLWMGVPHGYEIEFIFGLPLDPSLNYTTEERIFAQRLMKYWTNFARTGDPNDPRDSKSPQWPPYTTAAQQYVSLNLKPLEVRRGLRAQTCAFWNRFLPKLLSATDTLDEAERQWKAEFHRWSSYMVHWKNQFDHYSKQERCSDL

[2] = molecular target: T1, Glycogen synthase kinase-3 beta
Target sequence in this assay (P49841 whole entry): as the sequence (P49841 whole entry, looked up) above

[3] = molecular target: T3, Acetylcholinesterase (Mus musculus) (UniProt P21836); assay: Inhibition of mouse AChE using acetylthiocholine iodide as substrate at 1 uM incubated for 20 mins by Ellman's method relative to control
T3 sequence (whole entry): T2 sequence (P21836 whole entry)

SH-SY5Y [4] = assay: Neuroprotective activity against glyceraldehyde-induced neurotoxicity in human SH-SY5Y cells assessed as increase in cell viability at 0.5 to 5 uM incubated for 24 hrs by MTT assay; type: functional, cell-based; conditions: dose 0.5-5 µM
SH-SY5Y [5] = assay: Neuroprotective activity in human SH-SY5Y cells assessed as prevention of glyceraldehyde-induced neurite shortening at 0.5 to 5 uM incubated for 1 hr by confocal microsocopic analysis; type: functional, cell-based; conditions: dose 0.5-5 µM
[6] = Toxicity in ICR mouse assessed as diarrhea at 15 mg/kg, ip measured after 15 days; type: organism-based; conditions: in vivo, 360 h, time 15 day
[7] = Toxicity in ICR mouse assessed as emesis at 15 mg/kg, ip measured after 15 days; type: organism-based; conditions: in vivo, 360 h, time 15 day
[8] = Toxicity in ICR mouse assessed as swimming motility impairment at 15 mg/kg, ip measured after 15 days; type: organism-based; conditions: in vivo, 360 h, time 15 day

Compound | inhibition [1] [%] | IC50 (Acetylcholinesterase) [µM] | IC50 [2] [µM] | other results
Cn1c(NCCNc2c3c(nc4ccc(Br)cc24)CCCC3)nc(-c2ccncc2)cc1=O | < 50 | 15.8 |  | 
Cn1c(NCCCCCCNc2c3c(nc4cc(Cl)ccc24)CCCC3)nc(-c2ccncc2F)cc1=O |  | 52.7 | 178 | 
Cn1c(NCCNc2c3c(nc4ccc(Cl)cc24)CCCC3)nc(-c2ccncc2F)cc1=O |  | 9.8 | 8.13 | 
Cn1c(NCCNc2c3c(nc4ccc(C(C)(F)F)cc24)CCCC3)nc(-c2ccncc2)cc1=O | < 50 |  |  | inhibition [3]: < 50%
Cn1c(NCCNc2c3c(nc4ccccc24)CCCC3)nc(-c2ccncc2)cc1=O |  | 1.06 | 4.04 | 
Cc1ccc2c(NCCCCCCCNc3nc(-c4ccncc4)cc(=O)n3C)c3c(nc2c1)CCCC3 | < 60 | 145 |  | 
Cn1c(NCCNc2c3c(nc4cc(C(F)(F)F)ccc24)CCCC3)nc(-c2ccncc2)cc1=O | < 50 | 11.3 |  | 
COc1cc2c(cc1OC)C(=O)C(CC1CCN(Cc3ccccc3)CC1)C2 (stereo not given) [DONEPEZIL] |  |  | > 100 | 
Cn1c(NCCNc2c3c(nc4ccccc24)CCCC3)nc(-c2ccncc2F)cc1=O |  | 4.98 | 1.18 | 
Cn1c(NCCNc2c3c(nc4cc(Cl)ccc24)CCCC3)nc(-c2ccncc2F)cc1=O |  | 0.16 | 14 | 
Cn1c(NCCNc2c3c(nc4cc(Cl)ccc24)CCCC3)nc(-c2ccncn2)cc1=O | < 50 | 0.42 |  | 
Cn1c(NCCCCCCCNc2c3c(nc4cc(Br)ccc24)CCCC3)nc(-c2ccncc2F)cc1=O |  | 58.1 | 91 | 
O=c1sn(-c2cccc3ccccc23)c(=O)n1Cc1ccccc1 |  |  |  | Activity (SH-SY5Y [4]): Active; Activity (SH-SY5Y [5]): Active
Cn1c(NCCCCCCNc2c3c(nc4cc(F)ccc24)CCCC3)nc(-c2ccncc2F)cc1=O |  | 134 | 174 | 
Cc1ccc2c(NCCCCCCCNc3nc(-c4ccncc4F)cc(=O)n3C)c3c(nc2c1)CCCC3 |  | 174 | 137 | 
Cn1c(NCCCCCCCNc2c3c(nc4ccc(F)cc24)CCCC3)nc(-c2ccncc2)cc1=O | < 60 | 1800 |  | 
Cn1c(NCCCCCNc2c3c(nc4ccccc24)CCCC3)nc(-c2ccncc2)cc1=O |  | 0.4 | 1.28 | 
Cn1c(NCCCCNc2c3c(nc4ccccc24)CCCC3)nc(-c2ccncc2)cc1=O |  | 1.42 | 0.92 | 
Cn1c(NCCCCCCNc2c3c(nc4ccc(F)cc24)CCCC3)nc(-c2ccncc2)cc1=O | < 60 | 2420 |  | 
Cn1c(NCCCCCCCNc2c3c(nc4ccccc24)CCCC3)nc(-c2ccncc2)cc1=O |  | 0.13 | 0.33 | Activity [6]: Non-Toxic; Activity [7]: Non-Toxic; Activity [8]: Non-Toxic
Cn1c(NCCCCCCCNc2c3c(nc4cc(F)ccc24)CCCC3)nc(-c2ccncc2)cc1=O | < 60 | 124 |  | 
COc1ccc2c(NCCNc3nc(-c4ccncn4)cc(=O)n3C)c3c(nc2c1)CCCC3 | < 50 | 23 |  | 
Cn1c(NCCNc2c3c(nc4ccc(Cl)cc24)CCCC3)nc(-c2ccncn2)cc1=O | < 50 | 18.8 |  | 
Cc1ccc2c(NCCCCCCNc3nc(-c4ccncc4F)cc(=O)n3C)c3c(nc2c1)CCCC3 |  | 298 | 239 | 
Cn1c(NCCNc2c3c(nc4ccccc24)CCCC3)nc(-c2ccncn2)cc1=O |  | 0.8 | 5.63 | 
Cn1c(NCCCCCCNc2c3c(nc4ccc(F)cc24)CCCC3)nc(-c2ccncc2F)cc1=O |  | 2210 | 154 | 

Compound | inhibition [1] [%] | IC50 (Acetylcholinesterase) [µM] | IC50 [2] [µM] | other results
Cc1ccc2nc3c(c(NCCNc4nc(-c5ccncc5)cc(=O)n4C)c2c1)CCCC3 | < 50 | 20 |  | 
Cn1c(NCCCCCCCNc2c3c(nc4cc(Cl)ccc24)CCCC3)nc(-c2ccncc2)cc1=O | < 60 | 37.5 |  | 
Cn1c(NCCNc2c3c(nc4cc(Br)ccc24)CCCC3)nc(-c2ccncc2)cc1=O | < 50 | 0.44 |  | 
Cn1c(NCCCCCCCNc2c3c(nc4cc(F)ccc24)CCCC3)nc(-c2ccncc2F)cc1=O |  | 134 | 104 | 
Cn1c(NCCNc2c3c(nc4cc(F)ccc24)CCCC3)nc(-c2ccncn2)cc1=O | < 50 | 0.18 |  | 
Cn1c(NCCCCCCNc2c3c(nc4cc(Br)ccc24)CCCC3)nc(-c2ccncc2)cc1=O | < 60 | 45 |  | 
Cn1c(NCCCCCCCNc2c3c(nc4ccccc24)CCCC3)nc(-c2ccncc2F)cc1=O |  | 352 | 67.2 | 
Cn1c(NCCCCCCNc2c3c(nc4cc(Br)ccc24)CCCC3)nc(-c2ccncc2F)cc1=O |  | 70.3 | 179 | 
Cn1c(NCCNc2c3c(nc4cc(Cl)ccc24)CCCC3)nc(-c2ccncc2)cc1=O | < 50 | 0.49 |  | 
Cn1c(NCCCCCCNc2c3c(nc4cc(F)ccc24)CCCC3)nc(-c2ccncc2)cc1=O | < 60 | 163 |  | 
Cn1c(NCCNc2c3c(nc4cc(F)ccc24)CCCC3)nc(-c2ccncc2F)cc1=O |  | 0.73 | 11.9 | 
COc1ccc(CNC(=O)Nc2ncc([N+](=O)[O-])s2)cc1 |  | > 40 |  | 
Cn1c(NCCNc2c3c(nc4ccc(F)cc24)CCCC3)nc(-c2ccncc2)cc1=O | < 50 | 0.37 |  | 
COc1ccc2c(NCCNc3nc(-c4ccncc4)cc(=O)n3C)c3c(nc2c1)CCCC3 | < 50 | 8.3 |  | 
Cn1c(NCCCNc2c3c(nc4ccccc24)CCCC3)nc(-c2ccncc2)cc1=O | < 50 | 2.85 |  | 
COc1ccc2c(NCCNc3nc(-c4ccncc4F)cc(=O)n3C)c3c(nc2c1)CCCC3 |  | 9.92 | 19 | 
Cc1ccc2c(NCCNc3nc(-c4ccncc4)cc(=O)n3C)c3c(nc2c1)CCCC3 | < 50 | 1.89 |  | 
Cn1c(NCCCCCCNc2c3c(nc4ccccc24)CCCC3)nc(-c2ccncc2)cc1=O |  | 0.12 | 0.52 | 
Cn1c(NCCNc2c3c(nc4cc(F)ccc24)CCCC3)nc(-c2ccncc2)cc1=O | < 50 | 3.9 |  | 
Cn1c(NCCCCCCCNc2c3c(nc4ccc(F)cc24)CCCC3)nc(-c2ccncc2F)cc1=O |  | 2380 | 96.1 | 
Cn1c(NCCCCCCNc2c3c(nc4ccccc24)CCCC3)nc(-c2ccncc2F)cc1=O |  | 631 | 126 | 
Cn1c(NCCCCCCCNc2c3c(nc4cc(Br)ccc24)CCCC3)nc(-c2ccncc2)cc1=O | < 60 | 39 |  | 
COc1ccc2nc3c(c(NCCNc4nc(-c5ccncc5)cc(=O)n4C)c2c1)CCCC3 | < 50 | 15.7 |  | 
Cc1ccc2c(NCCCCCCNc3nc(-c4ccncc4)cc(=O)n3C)c3c(nc2c1)CCCC3 | < 60 | 239 |  | 
Cn1c(NCCCCCCNc2c3c(nc4cc(Cl)ccc24)CCCC3)nc(-c2ccncc2)cc1=O | < 60 | 53 |  | 
Cn1c(NCCNc2c3c(nc4ccc(Cl)cc24)CCCC3)nc(-c2ccncc2)cc1=O | < 50 | 10.9 |  | 

Source: ChEMBL document CHEMBL5032495, “Discovery of Novel Tacrine-Pyrimidone Hybrids as Potent Dual AChE/GSK-3 Inhibitors for the Treatment of Alzheimer's Disease” (J Med Chem, 2021)
